Data set [1] addresses muscarine M3 receptors (Homo sapiens, UniProt P20309). Conditions: reported in patent reference 1; cited from earlier work.
The format of data set [2] is physicochemical. Conditions: for related substances (individual maximum values): 40° C. and 75% RH. As for the experimental part: The amounts of degradation products over time under storage were measured by high-performance liquid chromatography. The maximum amount of the individual degradation products is shown. […] Therefore, the main cause of the degradation of the active pharmaceutical ingredient over time was presumably amorphous solifenacin succinate generated in the manufacturing process of the formulation.
Results of the stability of crystalline product and amorphous product of solifenacin succinate • Storage conditions: 40° C. and 75% RH • Packaging form: glass vial • Test items: related substances (individual maximum values)

Where two headings read alike, the source gives them in different places.

muscarine M3 receptors, sequence (P20309 whole entry): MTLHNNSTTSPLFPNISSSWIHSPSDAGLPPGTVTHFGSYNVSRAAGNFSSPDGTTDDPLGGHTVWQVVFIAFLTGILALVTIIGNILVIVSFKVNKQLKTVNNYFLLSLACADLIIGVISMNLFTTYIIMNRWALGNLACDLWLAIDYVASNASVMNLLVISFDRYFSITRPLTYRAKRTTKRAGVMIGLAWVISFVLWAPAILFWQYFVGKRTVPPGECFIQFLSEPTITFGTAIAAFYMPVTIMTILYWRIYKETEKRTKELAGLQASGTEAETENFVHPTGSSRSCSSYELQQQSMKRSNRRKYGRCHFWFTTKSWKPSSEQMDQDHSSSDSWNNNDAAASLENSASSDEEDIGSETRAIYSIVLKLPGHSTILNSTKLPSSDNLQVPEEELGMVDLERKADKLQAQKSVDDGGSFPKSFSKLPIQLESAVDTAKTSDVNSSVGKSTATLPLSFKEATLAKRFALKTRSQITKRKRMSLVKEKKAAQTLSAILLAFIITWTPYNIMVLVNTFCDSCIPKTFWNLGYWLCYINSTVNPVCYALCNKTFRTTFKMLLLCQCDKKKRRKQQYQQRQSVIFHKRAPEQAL

Turning to `O=C(O[C@H]1CN2CCC1CC2)N1CCc2ccccc2[C@@H]1c1ccccc1` [solifenacin, (1R,3′R)-3′-quinuclidinyl 1-phenyl-1,2,3,4-tetrahydro-2-isoquinoline carboxylate], the “antagonistic action against muscarine M3 receptors (in words)” value in data set [1] is given as “excellent selective antagonistic action”.

In the case of `O=C(O[C@H]1CN2CCC1CC2)N1CCc2ccccc2[C@@H]1c1ccccc1` [Amorphous product, solifenacin succinate], the “stability under storage (in words)” value in data set [2] is reported as “poorer than that of the crystalline product”. In addition, the “related substances (individual maximum values)” value in data set [2] (Open glass vial, one-week later) was found to be 0.16%; in data set [2] (Open glass vial, two-week later), 0.16%; in data set [2] (Sealed glass vial, one-week later), 0.03%; in data set [2] (Sealed glass vial, two-week later), 0.05%.

Source of the values: patent US8039482B2, “Composition of solifenacin or salt thereof for use in solid formulation” (Astellas Pharma Inc., priority 2004, dated 2011).
